{"source": "patent US5811073A", "about": "“Method for radioisotopic detection and localization of inflammation in a host” (President and Fellows of Harvard College, priority 1995, dated 1998)", "key": {"[1]": {"conditions": "intravenous; adult man; ^123 I-iodine thyroid blocked; cited from earlier work"}, "[2]": {"assay": "Total photon efficiency of gamma camera", "assay_type": "physicochemical", "protocol": "For use in calculating dosages, the relative photon efficiencies of ^123 IUdR and of gallium-67 were determined.\nTotal Photon Efficiency of Gamma Camera\nWith Respect to ^123 IUdR and gallium-67\nkeV* Frequency X Efficiency"}, "[3]": {"system": "sterile inflammatory lesions (pus capsule; turpentine oil)", "assay": "Gamma camera imaging of rats with sterile inflammation", "assay_type": "in vivo, Male Sprague-Dawley rats", "conditions": "for Figure of Merit (FOM), equation (1): 0.2 mCi ^67 Ga-citrate; for Figure of Merit (FOM), equation (1) / Pus Capsule to Contralateral Tissue (T/B) Ratio, gamma camera imaging: 1.5 mCi/rat ^123 IUdR; for Figure of Merit (FOM), equation (1) / Pus Capsule to Contralateral Tissue (T/B) Ratio, gamma camera imaging / Figure of Merit (FOM), equation (2): n=4, mean ± SD; for Pus Capsule to Contralateral Tissue (T/B) Ratio, gamma camera imaging: 0.2 mCi/rat ^67 Ga", "protocol": "Male Sprague-Dawley rats weighing between 150-200g were obtained from the Charles River Breeding Laboratories in Burlington, Mass. […] To anaesthetize the animals during testing, ketamine (40 mg/kg) and xylazine (10 mg/kg) were administered intra peritoneally (1.0 ml/kg) prior to surgical procedures. For the imaging studies, each animal received 1.5 ml/kg of a mixture of ketamine (75 mg/kg), xylazine (39 mg/kg) and acepromazine (0.75 mg/kg).\nTo induce a localized sterile inflammation, 0.1 ml of turpentine oil (Rectified Turpentine Oil for medical use, Gentry Corporation, Fair Lawn, N.J.) was injected into the left thigh muscle of anesthetized rats.\nA further set of rats prepared as described in Examples 1 and 2 received intravenous injections of either ^123 IUdR (at a dose of about 1.5 mCi/rat) or gallium-67 citrate (at a dose of about 0.2 mCi/rat). After 1, 3 and 24 hours, rats from each group were anesthetized and imaged using a gamma camera (the General Electric STARCAM™ 400 fitted with parallel hole medium collimator). Anterior images were obtained 10^6 counts/frame except for the 24 h period for ^123 IUdR where a 15 min scan was carried out. A 20% window was present over the 159 keV photopeaks of ^67 Ga (93 kev, 184 keV, and 298 keV).\nRegions of interest (ROI) were drawn over the inflamed areas (3×4 pixel) and over the contralateral area in each rat. Total counts in these regions were used to calculate Target to Background (T/B) ratios and to calculate Figure of Merit (FOM; statistical significance) values using either of the following equations:\nFOM=(At -Ab)^2 /(At +Ab) (1)\nAt =counts in ROI (3×4) over pus capsule; and\nAb =counts in ROI (3×4) over contralateral muscle.\nEquation (1) is derived from the Report of the National Council on Radiation Protection and Measurements, Nuclear Medicine, \"Factors Influencing the Choice and Use of Radionuclides in Diagnosis and Therapy\", Report No. 70, p.79 (NRCP, Bethesda, Md., 1982). Equation (2) is derived from Rubin et al., J. Nucl. Med. 30:385-389, 1989. For purposes of reference, the disclosures of each of these publications is incorporated herein."}, "[4]": {"system": "sterile and bacterial inflammation", "conditions": "i.v., 200-300 μCi gallium-67 citrate, 300-500 μCi ^99m Tc-human serum albumin, 100-150 μCi ^111 In-IgG or ^125 I-IgG; cited from earlier work"}}, "data": [{"compound": "O=C([O-])CC(O)(CC(=O)[O-])C(=O)[O-].[67Ga+3]", "note": "[^67 Ga, gallium-67 citrate]", "values": [{"measurement": "whole body effective dose", "setting": "[1]", "result": 0.44, "unit": "rad/mCi"}, {"measurement": "Total Photon Efficiency", "setting": "[2]; 91.3 keV", "result": 0.0296}, {"measurement": "Total Photon Efficiency", "setting": "[2]; 93.3 keV", "result": 0.37}, {"measurement": "Total Photon Efficiency", "setting": "[2]; 184.6 keV", "result": 0.1326}, {"measurement": "Total Photon Efficiency", "setting": "[2]; 209 keV", "result": 0.01515}, {"measurement": "Total Photon Efficiency", "setting": "[2]; 300.2 keV", "result": 0.0415}, {"measurement": "Total Photon Efficiency", "setting": "[2]; sum over photopeaks (^67 Ga), 159 keV (^123 I)", "result": 0.59}, {"measurement": "detection of the lesion in scintigraphic images (in words)", "setting": "[3]; 1, 3, and 24 h, i.v.", "result": "can clearly detect the lesion"}, {"measurement": "Figure of Merit (FOM), equation (1)", "setting": "[3]; 1 h, i.v.", "result": "1037 ± 215"}, {"measurement": "Pus Capsule to Contralateral Tissue (T/B) Ratio, gamma camera imaging", "setting": "[3]; 1 h, i.v.", "result": "2.76 ± 0.18"}, {"measurement": "Figure of Merit (FOM), equation (2)", "setting": "[3]; 1 h, i.v.", "result": "1.75 ± 0.2"}, {"measurement": "Figure of Merit (FOM), equation (1)", "setting": "[3]; 3 h, i.v.", "result": "1581 ± 143"}, {"measurement": "Pus Capsule to Contralateral Tissue (T/B) Ratio, gamma camera imaging", "setting": "[3]; 3 h, i.v.", "result": "3.61 ± 0.15"}, {"measurement": "Figure of Merit (FOM), equation (2)", "setting": "[3]; 3 h, i.v.", "result": "2.61 ± 0.18"}, {"measurement": "efficacy by imaging T/B ratio, comparison of agents (in words)", "setting": "[3]; 3 hrs", "result": "equal"}, {"measurement": "Figure of Merit (FOM), equation (1)", "setting": "[3]; 24 h, i.v.", "result": "1958 ± 149"}, {"measurement": "Pus Capsule to Contralateral Tissue (T/B) Ratio, gamma camera imaging", "setting": "[3]; 24 h, i.v.", "result": "5.09 ± 0.44"}, {"measurement": "Figure of Merit (FOM), equation (2)", "setting": "[3]; 24 h, i.v.", "result": "4.09 ± 0.50"}, {"measurement": "imaging T/B ratios, comparison of agents (in words)", "setting": "[3]; by 24 hrs", "result": "higher T/B ratios"}, {"measurement": "FOM values, comparison of agents (in words)", "setting": "[3]; later time points (3 hrs and 24 hrs)", "result": "equal or higher FOM values"}, {"measurement": "time of maximum target to background tissue ratio for image intensity", "setting": "[4]", "result": 3, "unit": "h"}]}]}
